The test has as its target T1, sodium-proton exchanger of subtype 3 (NHE3) (Homo sapiens, UniProt P48764).
T1 construct: expressed in transfected cells
T1 sequence (P48764 26-834): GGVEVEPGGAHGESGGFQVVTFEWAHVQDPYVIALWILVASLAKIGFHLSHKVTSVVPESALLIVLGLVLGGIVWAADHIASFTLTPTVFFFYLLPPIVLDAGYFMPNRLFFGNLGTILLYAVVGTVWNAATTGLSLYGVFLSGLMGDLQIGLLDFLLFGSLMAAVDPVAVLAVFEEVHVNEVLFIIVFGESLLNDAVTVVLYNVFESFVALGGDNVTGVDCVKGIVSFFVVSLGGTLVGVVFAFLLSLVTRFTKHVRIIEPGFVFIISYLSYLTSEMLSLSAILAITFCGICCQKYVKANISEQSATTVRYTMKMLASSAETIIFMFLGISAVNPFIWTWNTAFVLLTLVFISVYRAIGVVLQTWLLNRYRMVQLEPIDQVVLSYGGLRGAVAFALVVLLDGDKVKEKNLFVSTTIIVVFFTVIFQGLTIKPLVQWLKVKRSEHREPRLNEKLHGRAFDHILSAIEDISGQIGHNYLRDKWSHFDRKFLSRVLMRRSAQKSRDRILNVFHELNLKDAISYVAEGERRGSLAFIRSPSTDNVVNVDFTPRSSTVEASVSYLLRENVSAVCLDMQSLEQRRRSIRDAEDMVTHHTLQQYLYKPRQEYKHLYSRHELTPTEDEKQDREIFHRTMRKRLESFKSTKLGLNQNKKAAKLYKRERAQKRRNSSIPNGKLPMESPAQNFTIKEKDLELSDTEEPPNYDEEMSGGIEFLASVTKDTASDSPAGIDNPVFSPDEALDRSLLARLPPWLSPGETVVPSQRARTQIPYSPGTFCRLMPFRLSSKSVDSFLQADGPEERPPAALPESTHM
In words: Recovery of intracellular pH (pHi) after acidification in LAP1 cells stably expressing NHE3 (BCECF fluorescence, FLIPR). The test is classed as cell-based. Particulars: LAP1 cells stably expressing NHE3; pH recovery after acidification; range 1 is % inhibition at 10 μM; read-out: Activity range (inhibitory effect on NHE3).
As to `CC(=O)Nc1cccc(O[C@H]2c3cc(Cl)cc(F)c3C[C@@H]2N2CCNCC2)c1` (racemic) [Example 659, N-[3-(rac-trans-(1,2)-6-chloro-4-fluoro-2-piperazin-1-ylindan-1-yloxy)phenyl]acetamide], the IC50 is < 1000 nM.
Still for that read-out and setting: for `CS(=O)(=O)c1ccc(O[C@H]2c3cc(Cl)cc(Cl)c3C[C@@H]2N2CC(O)C2)cc1` [Example 307, 1-[trans-(1S,2S)-4,6-dichloro-1-(4-methanesulfonylphenoxy)indan-2-yl]azetidin-3-ol] the value was 1000 to 10000 nM; for `O=c1oc2ccc(O[C@@H]3c4ccccc4C[C@H]3N3C[C@H]4CNC[C@H]4C3)cc2s1` (racemic) [Example 577, 5-[rac-trans-(1,2)-2-(hexahydropyrrolo[3,4-c]pyrrol-2-yl)indan-1-yloxy]benzo[1,3]oxathiol-2-one], 1000 to 10000 nM; for `CN1CCN(c2cccc(O[C@H]3c4cc(Cl)cc(Cl)c4C[C@@H]3N3CC[C@@H](O)C3)c2)C1=O` [Example 319, 1-{3-[trans-(1S,2S)-4,6-dichloro-2-((R)-3-hydroxypyrrolidin-1-yl)indan-1-yloxy]phenyl}-3-methylimidazolidin-2-one], 1000 to 10000 nM.
The same measure, in the same setting: for `N[C@H]1CCCN([C@@H]2Cc3ccccc3[C@H]2Oc2ccc(N3CCNCC3)cc2)C1` (racemic) [Example 185, (S)-1-[rac-trans-(1,2)-1-(4-piperazin-1-ylphenoxy)indan-2-yl]piperidin-3-ylamine] the value was 1000 to 10000 nM; for `NCC1CCN([C@@H]2Cc3ccccc3[C@H]2Oc2ccc(Br)cc2-c2cc[nH]n2)CC1` (racemic) [Example 599, C-(1-{rac-trans-(1,2)-1-[4-bromo-2-(1H-pyrazol-3-yl)phenoxy]indan-2-yl}piperidin-4-yl)methylamine], 1000 to 10000 nM.
Same read-out and setting: for `N[C@@H]1CCCN([C@@H]2Cc3ccccc3[C@H]2Oc2ccc(-n3cncn3)cc2)C1` (racemic) [Example 62, (R)-1-[rac-trans-(1,2)-1-(4-[1,2,4]triazol-1-ylphenoxy)indan-2-yl]piperidin-3-ylamine] the value was < 1000 nM; for `Cc1nnc(C)n1-c1ccc(O[C@H]2c3cc(Cl)ccc3C[C@@H]2N2CCOCC2)c(Cl)c1` [Example 566, 4-{trans-(1S,2S)-6-chloro-1-[2-chloro-4-(3,5-dimethyl-[1,2,4]triazol-4-yl)phenoxy]indan-2-yl}morpholine], < 1000 nM; for `CCNS(=O)(=O)c1ccc(O[C@@H]2c3ccccc3C[C@H]2N2CCCC2)cc1` (racemic) [Example 700, N-ethyl-4-(rac-trans-(1,2)-2-pyrrolidin-1-ylindan-1-yloxy)benzenesulfonamide], < 1000 nM.
For `CN1C[C@@H]2CN([C@H]3Cc4c(Cl)cc(Cl)cc4[C@@H]3Oc3ccc(S(C)(=O)=O)cc3)C[C@@H]2C1` [Example 8, 2-[trans-(1S,2S)-4,6-dichloro-1-(4-methanesulfonylphenoxy)indan-2-yl]-5-methyloctahydropyrrolo[3,4-c]pyrrole], the IC50 is < 1000 nM.
The same measure, in the same setting: for `CCc1ccc(O[C@@H]2c3ccccc3C[C@H]2N2CCC(N)C2)c(C(C)(C)C)c1` (mixture of isomers) [Example 267, 1-[rac-trans-(1,2)-1-(2-tert-butyl-4-ethylphenoxy)indan-2-yl]pyrrolidin-3-ylamine] the value was 1000 to 10000 nM; for `COc1cc(Cl)cc(O[C@@H]2c3ccccc3C[C@H]2N2CCC(CN)C2)c1` (mixture of isomers) [Example 613, C-{1-[rac-trans-(1,2)-1-(3-chloro-5-methoxyphenoxy)indan-2-yl]pyrrolidin-3-yl}methylamine], 1000 to 10000 nM; for `N#Cc1ccc(O[C@H]2c3cc(Cl)cc(Cl)c3C[C@@H]2N2CC[C@H](O)C2)c(F)c1` [Example 555, 4-[trans-(1S,2S)-4,6-dichloro-2-((S)-3-hydroxypyrrolidin-1-yl)indan-1-yloxy]-3-fluorobenzonitrile], 1000 to 10000 nM.
The same measure, in the same setting: then `NS(=O)(=O)c1ccc(O[C@H]2c3cc(Cl)cc(Cl)c3C[C@@H]2N2CCOCC2)c(Cl)c1Cl` (racemic) [Example 358, 2,3-dichloro-4-(rac-trans-(1,2)-4,6-dichloro-2-morpholin-4-ylindan-1-yloxy)benzenesulfonamide], with 1000 to 10000 nM; and `O=C1CNC(=O)N1c1ccc(F)c(O[C@H]2c3cc(Cl)cc(F)c3C[C@@H]2N2CC[C@@H](O)C2)c1` [Example 421, 3-{3-[(1S,2S)-6-chloro-4-fluoro-2-((R)-3-hydroxypyrrolidin-1-yl)indan-1-yloxy]-4-fluorophenyl}imidazolidine-2,4-dione], with 1000 to 10000 nM; and `Clc1ccc(O[C@@H]2c3ccccc3C[C@H]2N2C[C@H]3CNC[C@H]3C2)cn1` (racemic) [Example 18, 2-[rac-trans-(1,2)-1-(6-chloropyridin-3-yloxy)indan-2-yl]octahydropyrrolo[3,4-c]pyrrole], with 1000 to 10000 nM.
Regarding `Cc1nnc(C)n1-c1ccc(O[C@H]2c3cc(Cl)c(Cl)cc3C[C@@H]2N2CCCC2)cc1` (racemic) [Example 498, 4-[4-(rac-trans-(1,2)-5,6-dichloro-2-pyrrolidin-1-ylindan-1-yloxy)phenyl]-3,5-dimethyl-4H-[1,2,4]triazole], the inhibition at 10 µM lay in the range of 20 to 50%.
Regarding `CS(=O)(=O)c1ccc(O[C@H]2c3cc(Cl)cc(Cl)c3C[C@@H]2N2CCNCC2)cc1` [Example 308, 1-[trans-(1S,2S)-4,6-dichloro-1-(4-methanesulfonylphenoxy)indan-2-yl]piperazine], the IC50 is < 1000 nM.
The same measure, in the same setting: for `O=C1OCc2cc(O[C@H]3c4ccccc4C[C@@H]3N3CCCC3)ccc21` (racemic) [Example 571, 5-(rac-trans-(1,2)-2-pyrrolidin-1-ylindan-1-yloxy)-3H-isobenzofuran-1-one] the value was 1000 to 10000 nM; for `CCCc1ccc(NC(C)=O)cc1O[C@H]1c2ccccc2CC[C@@H]1N1CCC[C@@H](N)C1` (racemic) [Example 675, N-{3-[rac-trans-(1,2)-2-((R)-3-aminopiperidin-1-yl)-1,2,3,4-tetrahydronaphthalen-1-yloxy]-4-propylphenyl}acetamide], 1000 to 10000 nM.
`c1ccc2c(c1)CC[C@H](N1CCOCC1)[C@H]2Oc1ccc2ccncc2c1` (racemic) [Example 588, 7-(rac-trans-(1,2)-2-morpholin-4-yl-1,2,3,4-tetrahydronaphthalen-1-yloxy)isoquinoline]: the inhibition at 10 µM lay in the range of 20 to 50%.
Consider `O=C1CCC(=O)N1c1ccc(Cl)c(O[C@H]2c3cc(Cl)cc(Cl)c3C[C@@H]2N2CC[C@@H](O)C2)c1` [Example 337, 1-{4-chloro-3-[(1S,2S)-4,6-dichloro-2-((R)-3-hydroxypyrrolidin-1-yl)indan-1-yloxy]phenyl}pyrrolidine-2,5-dione], for which the IC50 was 1000 to 10000 nM.
As for `N[C@@H]1CCCN([C@@H]2Cc3ccccc3[C@H]2Oc2ccc3ccncc3c2)C1` (racemic) [Example 85, (R)-1-[rac-trans-(1,2)-1-(isoquinolin-7-yloxy)indan-2-yl]piperidin-3-ylamine], the IC50 was in the range of 1000 to 10000 nM.
On the same count and under the same terms, then `CC(=O)Nc1cccc(O[C@H]2c3ccc(Cl)cc3C[C@@H]2N2CCCC2)c1` (racemic) [Example 655, N-[3-(rac-trans-(1,2)-5-chloro-2-pyrrolidin-1-ylindan-1-yloxy)phenyl]acetamide], with 1000 to 10000 nM.

These data come from patent US8822449B2, “Substituted aminoindanes and analogs thereof, and the pharmaceutical use thereof” (Sanofi, priority 2008, dated 2014).
